Test results reported in ChEMBL document CHEMBL1201862, “PubChem BioAssay data set” (2004).
Calls of active or inactive are those of the source.

What was measured:
cells [1] = format: functional, cell-based
cells [2] = format: functional, cell-based; remark: listed apart in the source
[3] = molecular target: T1, DNA repair protein RAD52 homolog (Homo sapiens, UniProt P43351); format: functional, biochemical
T1 sequence (P43351 whole entry): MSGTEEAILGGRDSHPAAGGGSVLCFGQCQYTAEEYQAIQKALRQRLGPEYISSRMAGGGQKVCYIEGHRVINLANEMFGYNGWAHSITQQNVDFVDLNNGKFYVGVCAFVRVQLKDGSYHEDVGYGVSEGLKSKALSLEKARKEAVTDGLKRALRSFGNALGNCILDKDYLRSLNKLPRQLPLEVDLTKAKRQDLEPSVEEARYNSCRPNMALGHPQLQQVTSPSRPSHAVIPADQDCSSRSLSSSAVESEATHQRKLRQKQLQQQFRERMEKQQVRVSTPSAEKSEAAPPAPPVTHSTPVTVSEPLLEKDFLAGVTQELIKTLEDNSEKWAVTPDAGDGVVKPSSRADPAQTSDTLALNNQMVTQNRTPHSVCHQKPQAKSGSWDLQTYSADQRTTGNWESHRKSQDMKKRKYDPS

[4] = molecular target: T2, Adenosylmethionine-8-amino-7-oxononanoate aminotransferase (Mycobacterium tuberculosis, UniProt P9WQ81); assay: Mycobacterium tuberculosis BioA enzyme inhibitor Measured in Biochemical System Using Plate Reader - 2163-02_Inhibitor_Dose_CherryPick_Activity.; format: functional, Mycobacterium tuberculosis UT205
T2 sequence (P9WQ81 whole entry): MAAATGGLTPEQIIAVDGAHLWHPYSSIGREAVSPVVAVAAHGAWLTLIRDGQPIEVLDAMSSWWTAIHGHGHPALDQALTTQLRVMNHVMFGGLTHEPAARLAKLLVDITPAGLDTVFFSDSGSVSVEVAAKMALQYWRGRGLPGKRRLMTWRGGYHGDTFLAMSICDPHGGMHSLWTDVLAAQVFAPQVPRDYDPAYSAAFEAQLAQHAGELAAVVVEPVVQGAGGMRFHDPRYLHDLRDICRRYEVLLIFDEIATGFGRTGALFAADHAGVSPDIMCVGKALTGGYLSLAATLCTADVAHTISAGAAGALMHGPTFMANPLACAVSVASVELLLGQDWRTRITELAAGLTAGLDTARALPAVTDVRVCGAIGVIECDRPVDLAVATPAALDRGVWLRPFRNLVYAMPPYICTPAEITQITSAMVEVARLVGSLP

Estrogen receptor = molecular target: T3, Estrogen receptor (Homo sapiens, UniProt P03372);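 further: potency for inhibiting coactivator peptide recruitment to the receptor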
T3 sequence (P03372 whole entry): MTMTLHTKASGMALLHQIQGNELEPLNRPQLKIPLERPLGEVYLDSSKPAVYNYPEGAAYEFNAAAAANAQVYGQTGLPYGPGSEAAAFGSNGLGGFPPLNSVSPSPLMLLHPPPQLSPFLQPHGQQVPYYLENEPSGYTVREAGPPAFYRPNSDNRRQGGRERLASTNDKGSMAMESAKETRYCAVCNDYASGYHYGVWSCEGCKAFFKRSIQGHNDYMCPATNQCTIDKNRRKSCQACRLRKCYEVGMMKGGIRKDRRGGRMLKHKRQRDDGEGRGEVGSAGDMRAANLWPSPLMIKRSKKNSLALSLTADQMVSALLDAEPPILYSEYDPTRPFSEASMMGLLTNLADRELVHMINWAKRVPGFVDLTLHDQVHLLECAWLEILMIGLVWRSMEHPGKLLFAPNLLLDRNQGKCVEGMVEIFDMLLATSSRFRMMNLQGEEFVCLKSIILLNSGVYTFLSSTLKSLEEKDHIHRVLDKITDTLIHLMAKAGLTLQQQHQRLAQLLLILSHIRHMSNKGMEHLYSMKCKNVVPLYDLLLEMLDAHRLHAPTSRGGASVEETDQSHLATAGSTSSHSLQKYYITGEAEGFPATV

[5] = M. tuberculosis H37Rv growth inhibitors, H37Rv strain (AID 1626); format: functional
[6] = molecular target: T4, Rac GTPase-activating protein 1 (Homo sapiens, UniProt Q9H0H5); assay: blockers of MgcRacGAP-driven Rac1 GTP hydrolysis – biochemical, ADP Hunter fluorescence, primary and confirmatory, confirmation (AID 624330); format: functional
T4 sequence (Q9H0H5 whole entry): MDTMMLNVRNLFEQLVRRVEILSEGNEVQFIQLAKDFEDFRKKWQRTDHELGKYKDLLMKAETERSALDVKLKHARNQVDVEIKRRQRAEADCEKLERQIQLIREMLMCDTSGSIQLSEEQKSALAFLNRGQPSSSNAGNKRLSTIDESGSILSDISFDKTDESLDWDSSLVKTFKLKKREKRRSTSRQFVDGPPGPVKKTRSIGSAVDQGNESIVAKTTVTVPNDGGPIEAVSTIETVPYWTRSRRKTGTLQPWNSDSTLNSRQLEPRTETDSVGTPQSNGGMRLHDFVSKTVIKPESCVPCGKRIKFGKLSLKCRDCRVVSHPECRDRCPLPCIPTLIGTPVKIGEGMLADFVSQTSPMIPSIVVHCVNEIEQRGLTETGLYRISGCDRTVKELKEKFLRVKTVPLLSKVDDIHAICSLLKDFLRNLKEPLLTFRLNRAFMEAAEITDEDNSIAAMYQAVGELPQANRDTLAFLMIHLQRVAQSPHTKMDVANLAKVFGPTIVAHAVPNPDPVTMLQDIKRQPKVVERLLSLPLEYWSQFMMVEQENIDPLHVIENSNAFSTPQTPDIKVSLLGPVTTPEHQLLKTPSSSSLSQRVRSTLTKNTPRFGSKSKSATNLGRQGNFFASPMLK

cells [7] = format: functional, cell-based; remark: listed apart in the source
cells [8] = format: functional, cell-based; remark: listed apart in the source
[9] = molecular target: Dual specificity tyrosine-phosphorylation-regulated kinase 1A (Rattus norvegicus, UniProt Q63470); format: biochemical, Homo sapiens
[10] = molecular target: Nucleotide-binding oligomerization domain-containing protein 2 (Homo sapiens, UniProt Q9HC29); assay: inhibition of NOD2-driven NF-kB reporter – cell-based, luminescence, uHTS, HEK293 (AID 1566); format: functional
HEK293 [11] = assay: cells; conditions: Homo sapiens
HEK293 [12] = assay: cells; format: functional, cell-based; conditions: Homo sapiens
HEK293 [13] = assay: cells; format: functional, cell-based; conditions: Homo sapiens; remark: listed apart in the source
Tumor necrosis factor = Tumor necrosis factor (Homo sapiens, UniProt P01375); assay: analog potency on TNFa NF-kB signaling – cell-based, revised, SAR follow-up (AID 2337); format: functional
HEK293 [14] = assay: cells; format: functional, cell-based; conditions: Homo sapiens; remark: listed apart in the source
HEK293 [15] = assay: NOD2 signaling inhibitors in MDP-stimulated cells, cell-based, uHTS, luminescence (AID 2001); format: functional; conditions: Homo sapiens
[16] = molecular target: T5, Nucleotide-binding oligomerization domain-containing protein 1 (Homo sapiens, UniProt Q9Y239); assay: blockers of NOD1 pathway activity – revised, SAR follow-up (AID 2333); format: functional
T5 sequence (Q9Y239 whole entry): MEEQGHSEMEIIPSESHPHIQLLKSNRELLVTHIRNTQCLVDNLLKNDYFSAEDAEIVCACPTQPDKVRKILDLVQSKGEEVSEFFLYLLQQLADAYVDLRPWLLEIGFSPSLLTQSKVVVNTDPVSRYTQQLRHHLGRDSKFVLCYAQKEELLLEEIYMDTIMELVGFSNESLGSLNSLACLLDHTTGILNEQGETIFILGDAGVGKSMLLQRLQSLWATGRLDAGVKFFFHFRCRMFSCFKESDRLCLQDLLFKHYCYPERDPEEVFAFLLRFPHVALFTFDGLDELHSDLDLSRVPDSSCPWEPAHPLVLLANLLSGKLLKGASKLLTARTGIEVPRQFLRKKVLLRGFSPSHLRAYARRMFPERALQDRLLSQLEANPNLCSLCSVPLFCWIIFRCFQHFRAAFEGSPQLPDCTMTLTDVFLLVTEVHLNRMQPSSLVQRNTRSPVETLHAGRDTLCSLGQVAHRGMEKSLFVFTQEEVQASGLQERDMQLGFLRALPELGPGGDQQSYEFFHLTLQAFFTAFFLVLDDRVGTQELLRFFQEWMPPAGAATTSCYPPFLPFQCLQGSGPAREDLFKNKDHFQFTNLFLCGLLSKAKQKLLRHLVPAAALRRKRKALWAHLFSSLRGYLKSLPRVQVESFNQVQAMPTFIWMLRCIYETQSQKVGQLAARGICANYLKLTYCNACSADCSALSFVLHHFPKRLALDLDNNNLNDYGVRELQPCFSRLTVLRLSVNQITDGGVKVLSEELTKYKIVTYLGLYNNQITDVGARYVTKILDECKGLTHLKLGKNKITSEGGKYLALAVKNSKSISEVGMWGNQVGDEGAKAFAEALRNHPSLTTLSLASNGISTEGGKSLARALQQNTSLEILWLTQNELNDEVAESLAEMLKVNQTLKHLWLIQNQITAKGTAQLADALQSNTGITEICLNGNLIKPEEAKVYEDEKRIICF

HEK293 [17] = assay: inhibition of NOD1-driven NF-kB reporter – cell-based, luminescence, uHTS, primary screen (AID 1578); format: functional; conditions: Homo sapiens
[18] = OVCAR-3 cell viability loss – plate reader, dry powder samples, PAX8 inhibitor project, dose response (AID 743044); format: functional, cell-based
Paired box protein Pax-8 = Paired box protein Pax-8 (Homo sapiens, UniProt Q06710); assay: PAX8 transcriptional activity inhibition in RMG-I – RMG-I cells, luciferase, cherry-pick, dose response (AID 687027); format: functional, cell-based;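 further: luciferase reporter driven by Pax8 target thyroperoxidase promoter measured by SteadyGlo luminescence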
[19] = molecular target: T6, Heat shock factor protein 1 (Mus musculus, UniProt P38532); assay: decrease of HSF1-responsive luciferase luminescence – cell-based, NIH3T3, dose retest, confirmation (AID 2382); format: functional;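 further: NIH3T3 fibroblasts with HSF1-driven luciferase reporter stressed by proteasome inhibitor MG132; luminescence from HSF1-driven luciferase expression after 8 hours of MG132 stress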
T6 sequence (P38532 whole entry): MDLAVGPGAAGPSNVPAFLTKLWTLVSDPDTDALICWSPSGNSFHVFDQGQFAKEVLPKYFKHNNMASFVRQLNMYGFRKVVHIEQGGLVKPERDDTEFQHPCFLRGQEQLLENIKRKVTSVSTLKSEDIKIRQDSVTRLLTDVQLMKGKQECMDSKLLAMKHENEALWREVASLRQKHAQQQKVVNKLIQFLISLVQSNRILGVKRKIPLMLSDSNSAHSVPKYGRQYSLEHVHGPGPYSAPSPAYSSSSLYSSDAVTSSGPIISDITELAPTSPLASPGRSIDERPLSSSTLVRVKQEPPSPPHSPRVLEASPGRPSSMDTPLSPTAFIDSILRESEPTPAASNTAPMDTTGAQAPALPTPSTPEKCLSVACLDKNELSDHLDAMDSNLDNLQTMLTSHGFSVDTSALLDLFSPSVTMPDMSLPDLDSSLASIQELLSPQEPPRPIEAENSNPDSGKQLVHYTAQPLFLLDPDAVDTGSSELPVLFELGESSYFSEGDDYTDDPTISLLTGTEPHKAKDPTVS

[20] = viability of uninfected HEp-2 cells – cell-based, HTS, cytotoxicity control for RSV inhibitor project, dose response (AID 2410); format: functional; conditions: human respiratory syncytial virus
[21] = microbe, parasite or virus in culture; format: functional; conditions: Mycobacterium tuberculosis

Sequence of Paired box protein Pax-8 (Q06710 whole entry): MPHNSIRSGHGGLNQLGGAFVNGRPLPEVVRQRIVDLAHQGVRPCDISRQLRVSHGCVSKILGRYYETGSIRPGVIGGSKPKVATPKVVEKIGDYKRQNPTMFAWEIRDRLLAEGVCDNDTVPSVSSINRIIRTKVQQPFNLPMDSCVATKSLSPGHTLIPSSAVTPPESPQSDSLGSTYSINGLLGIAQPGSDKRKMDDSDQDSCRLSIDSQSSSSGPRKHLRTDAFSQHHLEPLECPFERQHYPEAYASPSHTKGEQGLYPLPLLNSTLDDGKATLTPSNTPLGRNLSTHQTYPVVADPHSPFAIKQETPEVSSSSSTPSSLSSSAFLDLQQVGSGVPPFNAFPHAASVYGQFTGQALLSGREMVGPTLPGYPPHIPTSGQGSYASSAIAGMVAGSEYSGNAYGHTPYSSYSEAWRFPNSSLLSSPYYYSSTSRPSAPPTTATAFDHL
Sequence of Tumor necrosis factor (P01375 whole entry): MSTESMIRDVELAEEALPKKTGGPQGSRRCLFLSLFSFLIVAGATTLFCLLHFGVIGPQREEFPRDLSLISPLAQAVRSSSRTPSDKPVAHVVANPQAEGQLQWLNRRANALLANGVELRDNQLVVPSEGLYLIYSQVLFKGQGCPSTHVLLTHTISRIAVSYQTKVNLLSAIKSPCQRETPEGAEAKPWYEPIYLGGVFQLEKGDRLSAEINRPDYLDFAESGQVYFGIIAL
Sequence of Nucleotide-binding oligomerization domain-containing protein 2 (Q9HC29 whole entry, the tested form may be a part): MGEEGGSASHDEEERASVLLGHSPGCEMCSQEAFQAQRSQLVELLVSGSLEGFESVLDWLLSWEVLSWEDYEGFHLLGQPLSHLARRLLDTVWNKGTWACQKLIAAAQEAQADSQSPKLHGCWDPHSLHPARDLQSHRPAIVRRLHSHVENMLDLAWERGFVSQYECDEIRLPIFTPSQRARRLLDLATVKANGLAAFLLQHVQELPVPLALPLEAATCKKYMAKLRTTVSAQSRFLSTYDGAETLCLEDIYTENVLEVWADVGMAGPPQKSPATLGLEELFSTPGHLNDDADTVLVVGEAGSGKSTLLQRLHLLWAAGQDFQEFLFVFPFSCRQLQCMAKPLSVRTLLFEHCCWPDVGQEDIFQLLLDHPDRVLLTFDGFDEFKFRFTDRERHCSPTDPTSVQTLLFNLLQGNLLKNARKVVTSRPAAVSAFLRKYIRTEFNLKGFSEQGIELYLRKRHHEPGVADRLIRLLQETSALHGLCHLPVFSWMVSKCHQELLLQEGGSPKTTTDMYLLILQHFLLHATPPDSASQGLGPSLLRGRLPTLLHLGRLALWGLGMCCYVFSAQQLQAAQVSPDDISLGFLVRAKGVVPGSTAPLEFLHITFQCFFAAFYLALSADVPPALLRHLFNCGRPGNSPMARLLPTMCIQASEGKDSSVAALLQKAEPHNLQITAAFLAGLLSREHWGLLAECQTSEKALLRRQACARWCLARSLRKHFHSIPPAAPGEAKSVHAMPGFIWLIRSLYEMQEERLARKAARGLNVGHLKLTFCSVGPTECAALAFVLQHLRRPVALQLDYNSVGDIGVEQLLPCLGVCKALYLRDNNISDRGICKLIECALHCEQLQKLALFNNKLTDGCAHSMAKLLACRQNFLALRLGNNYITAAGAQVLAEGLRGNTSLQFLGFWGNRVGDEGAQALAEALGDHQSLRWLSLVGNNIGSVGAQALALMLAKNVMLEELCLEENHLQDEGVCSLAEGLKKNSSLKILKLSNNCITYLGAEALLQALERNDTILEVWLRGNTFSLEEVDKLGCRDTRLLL

## N=C(N)Nc1cc2ccccc2c2ccccc12
Cells [1]
  EC50: > 29.9 µM (inactive)
Cells [2]
  IC50: > 29.9 µM (inactive)
[3]
  AC50: 7.61 µM (active)

## COc1ccc(NC(=O)c2ccc(S(=O)(=O)N(C)C)cc2)cc1OC
[4]
  AC50: 9.66 µM (active)

## O=C(NNC(=O)c1ccc(SCC2CCCO2)c([N+](=O)[O-])c1)c1ccc(Cl)c([N+](=O)[O-])c1 (stereo unspecified)
Estrogen receptor
  IC50: 23.3 µM (active)

## O=C(Cc1cccs1)N1CCN=C1SCc1ccc(Br)cc1
[5]
  IC50: > 100 µM (active)

## CC(C)c1onc(C(=O)NCCc2ccccc2)c1[N+](=O)[O-]
Cells [1]
  EC50: > 29.9 µM (inactive)
Cells [2]
  IC50: > 29.9 µM (inactive)

## CC(=O)c1ccc(N2CCN(C(=O)c3ccc4[nH]cnc4c3)CC2)cc1
[4]
  AC50: 8.11 µM (active)

## COc1ccc(NC(=O)CSc2ncn(-c3ccccc3)n2)cc1Cl
[5]
  IC50: > 100 µM (active)

## O=C(CNCc1ccco1)Nc1ccc(Oc2ccccc2)cc1
[5]
  IC50: > 100 µM (active)
[6]
  IC50: 122 µM (active)

## Cc1nnc(N2CCC(C(=O)N3CCCCC3)CC2)c2nn(-c3ccc(Cl)cc3)c(C)c12
[4]
  AC50: 4.14 µM (active)

## Cn1nnc2cc(C(=O)N3CCC(c4ccccc4)C3)ccc21 (stereo unspecified)
Cells [7]
  EC50: > 350 µM (not active)
Cells [8]
  EC50: > 350 µM (not active)
[4]
  AC50: 4.86 µM (active)

## O=C(COC(=O)CCC(=O)c1cccs1)NCc1ccco1
Estrogen receptor
  IC50: 11.9 µM (active)

## Cc1cc(SCC(=O)NC(=O)NCc2ccco2)nc2c(C)cccc12
Estrogen receptor
  IC50: 32 µM (not active)

## Cc1ccc(CNC(=O)c2cc3c(=O)n(C)c4ccccc4c3n2C)o1
[9]
  AC50: > 120 µM (inactive)

## COc1cccc(C(=O)Nc2sc3c(c2C(=O)O)CCCC3)c1
[10]
  EC50: > 20 µM (inactive)
HEK293 [11]
  IC50: > 20 µM (inactive)
HEK293 [12]
  IC50: > 20 µM (inactive)
HEK293 [13]
  IC50: > 20 µM (inactive)
Tumor necrosis factor
  IC50: > 20 µM (inactive)
HEK293 [14]
  IC50: > 20 µM (inactive)
HEK293 [15]
  IC50: > 20 µM (inactive)
[16]
  IC50: 1.76 µM (active)
HEK293 [17]
  EC50: > 20 µM (inactive)

## O=C(CCCOc1ccccc1)NCCc1ccccc1
Cells [1]
  EC50: > 29.9 µM (inactive)
Cells [2]
  IC50: > 29.9 µM (inactive)

## O=C(Nc1nc(-c2ccc(-c3ccccc3)cc2)cs1)c1cnccn1
[5]
  IC50: > 100 µM (active)

## CC(=O)N1[C@@H]2c3ccc(-c4cccnc4)c(=O)n3C[C@@H]2[C@@H](CO)[C@@H]1C(=O)NCc1ccccc1Cl
[4]
  AC50: 1.09 µM (active)

## C[C@@H]1CN([C@H](C)CO)C(=O)c2cc(NS(=O)(=O)c3ccc(Cl)cc3)ccc2O[C@@H](C)CCCCO[C@H]1CN(C)Cc1ccc(Cl)c(Cl)c1
[18]
  AC50: 32.8 µM (active)
Paired box protein Pax-8
  AC50: 4.84 µM (active)

## CNC(=S)N/N=C/c1ccc(-c2cccc(C(=O)O)c2)o1
[19]
  EC50: > 195 µM (not active)
[9]
  AC50: 7.05 µM (active)

## CN1/C(=N\O)c2cccc3cccc1c23
[20]
  CC50: 24.9 µM (active)
[6]
  IC50: 24.8 µM (active)
[9]
  AC50: 1.28 µM (active)
[21]
  CC50: > 40 µM (active)

## COc1ccc(/N=C/c2ccc[nH]2)cc1
[5]
  IC50: > 100 µM (active)
